# Laboratory results published in ChEMBL document CHEMBL4613230, “Antifungal Sesquiterpenoids, Rhodocoranes, from Submerged Cultures of the Wrinkled Peach Mushroom, Rhodotus palmatus” (J Nat Prod, 2020).
# Calls of active or inactive are those of the source. No cut-off for these calls is given here.
# Experiments:
# [1] = tested on: KB 3-1; test: Cytotoxicity against human KB3-1 cells by MTT assay; type: functional, cell-based
# [2] = tested on: Rhodotorula glutinis; test: Antimicrobial activity against Rhodotorula glutinis DSM 10134 by serial dilution assay; type: functional, organism-based
# [3] = tested on: Escherichia coli; test: Antimicrobial activity against Escherichia coli harboring TolC mutant by serial dilution assay; type: functional
# [4] = tested on: Micrococcus luteus; test: Antimicrobial activity against Micrococcus luteus DSM 1790 by serial dilution assay; type: functional
# [5] = tested on: Staphylococcus aureus; test: Antimicrobial activity against Staphylococcus aureus DSM346 by serial dilution assay; type: functional
# [6] = tested on: A-431; test: Cytotoxicity against human A431 cells by MTT assay; type: functional, cell-based
# [7] = tested on: MCF7; test: Cytotoxicity against human MCF7 cells by MTT assay; type: functional, cell-based
# [8] = tested on: Bacillus subtilis; test: Antimicrobial activity against Bacillus subtilis DSM 10 by serial dilution assay; type: functional
# [9] = tested on: L929; test: Cytotoxicity against mouse L929 cells by MTT assay; type: cell-based
# [10] = tested on: Mucor plumbeus; test: Antimicrobial activity against Mucor plumbeus MUCL49355 by serial dilution assay; type: functional
structure (smiles),measurement,setting,value
Cc1cc(C2=C(C(C)C)CC[C@H]2C)oc(=O)c1O,IC50,[1],2.9 µM
same,Activity,[2],Active
same,MIC,[3],33.3 to 66.7 µg/mL
same,MIC,[4],33.3 to 66.7 µg/mL
same,MIC,[5],33.3 to 66.7 µg/mL
same,IC50,[6],12 µM
same,IC50,[7],9.3 µM
same,MIC,[8],33.3 to 66.7 µg/mL
same,IC50,[9],5.6 µM
CC1=C(O)C(=O)[C@]23C(=O)[C@H]1[C@H](O)[C@@H](C)[C@H]2CC[C@H]3C,Activity,[2],Active
Cc1cc([C@]23OC[C@@H](C)[C@H]2CC[C@H]3C)oc(=O)c1O,Activity,[2],Active
CC1=C/C(=C2/[C@H](C)CC[C@@H]2C(C)C)OC1=O,MIC,[10],8.3 µg/mL
same,Activity,[2],Active
same,MIC,[3],33.3 to 66.7 µg/mL
same,MIC,[4],33.3 to 66.7 µg/mL
same,MIC,[5],33.3 to 66.7 µg/mL
same,MIC,[8],33.3 to 66.7 µg/mL
CC1=CC(=O)[C@]2(C1=O)[C@H](C)CC[C@@H]2[C@H](C)CO,Activity,[2],Active
CC1=C/C(=C2\[C@H](C)CC[C@@H]2[C@H](C)CO)OC1=O,Activity,[2],Active
CC1=C/C(=C2/[C@H](C)CC[C@@H]2[C@H](C)CO)OC1=O,MIC,[10],8.3 µg/mL
same,Activity,[2],Active
